According to ChEMBL document CHEMBL1201862, “PubChem BioAssay data set” (2004):
Active and inactive are the calls of the source.

Tests used:
[1] = test system: Escherichia coli; assay: microbe, parasite or virus in culture
[2] = target: Lysine-specific demethylase 4A (Homo sapiens, UniProt O75164); assay: JMJD2A histone demethylase inhibitors, dose response, selectivity assay for GASC-1 inhibitor project, biochemical, DELFIA europium, cherry-picked samples (AID 488840)
[3] = test system: Escherichia coli; assay: microbe, parasite or virus in culture; remark: listed apart in the source
[4] = target: T1, Ubiquitin-conjugating enzyme E2 N (Homo sapiens, UniProt P61088); format: functional;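 also: Dose-response confirmation in a TR-FRET assay detecting UBC13-driven polyubiquitin chain formation, inhibition measured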
T1 sequence (P61088 whole entry): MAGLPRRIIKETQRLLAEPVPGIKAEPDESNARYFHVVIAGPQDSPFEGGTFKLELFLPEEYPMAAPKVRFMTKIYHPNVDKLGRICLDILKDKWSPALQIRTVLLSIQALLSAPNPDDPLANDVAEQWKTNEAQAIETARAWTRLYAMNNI

[5] = test system: A-375; assay: A375 melanoma cell viability reduction, dose response, counter-screen for MITF modulator project, cherry-pick samples, set 2 (AID 540335); format: functional, cell-based; settings: Homo sapiens
[6] = Luminescence Cell-Based Dose Response HTS to Identify Activators of Luciferase Translation or Activity in H4 […] Cells. [Related pubchem assays: 1829 (Project Summary), 1814 (Primary HTS)]; format: functional
[7] = test system: A-375; assay: MITF: Counter assay: A375 proliferation Measured in Cell-Based System Using Plate Reader - 2084-03_Inhibitor_Dose_DryPowder_Activity. [Related pubchem assays (depositor defined):AID488944]; format: functional; settings: Homo sapiens
[8] = test system: H4; assay: Luminescence Cell-Based Dose Response HTS to Identify Activators of 5'UTR Stem-Loop Driven Prion Protein mRNA Translation in H4 Neuroglioblastoma Cells. [Related pubchem assays: 1829 (Project Summary), 1814 (Primary HTS)]; format: functional; settings: Homo sapiens
[9] = Luminescence Cell-Based Dose Confirmation HTS to Identify Activators of 5'UTR Stem-Loop Driven Alpha-Synuclein mRNA Translation in H4 Neuroglioblastoma Cells. [Related pubchem assays: 1829 (Project Summary), 1814 (Primary HTS)]; format: functional
[10] = Luminescence Cell-Based Secondary HTS screen to identify cytotoxic compounds of NIH3T3 cells. [Related pubchem assays: 1885, 1968 ]; format: functional
[11] = inhibitors of Trypanosoma cruzi host-cell infection, confirmation, beta-gal luminescence, NIH3T3 host cells (AID 2630); format: functional, cell-based; settings: Mus musculus
[12] = cytotoxicity toward NIH3T3 fibroblasts, dose response, counter-screen, cell-based, ATP luminescence, mouse fibroblasts (AID 2010); format: functional;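 also: cells exposed to compound for about 90 hours before reading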
[13] = Luminescence Cell-Based/Microorganism Confirmation at Dose of Inhibitors of Trypanosoma cruzi Infection. [Related pubchem assays: 1885, 1968 ]; format: functional
[14] = test system: INS1; assay: beta cell apoptosis inhibitors, cytokine rescue, dose response, luminescence, retest (AID 449756); format: functional, cell-based; settings: Rattus norvegicus;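 also: cell death triggered by IL-1 beta plus TNF-alpha plus IFN-gamma mixture; protective hits raise ATP signal compared with cytokine alone wells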
[15] = cells
[16] = target: T2, Microphthalmia-associated transcription factor (Homo sapiens, UniProt O75030); assay: TRPM1 promoter luciferase signal decrease, dose response, MITF inhibitor project, cell-based, SK-MEL-5, cherry-picked, set 3 (AID 493073); format: functional
T2 sequence (O75030 whole entry): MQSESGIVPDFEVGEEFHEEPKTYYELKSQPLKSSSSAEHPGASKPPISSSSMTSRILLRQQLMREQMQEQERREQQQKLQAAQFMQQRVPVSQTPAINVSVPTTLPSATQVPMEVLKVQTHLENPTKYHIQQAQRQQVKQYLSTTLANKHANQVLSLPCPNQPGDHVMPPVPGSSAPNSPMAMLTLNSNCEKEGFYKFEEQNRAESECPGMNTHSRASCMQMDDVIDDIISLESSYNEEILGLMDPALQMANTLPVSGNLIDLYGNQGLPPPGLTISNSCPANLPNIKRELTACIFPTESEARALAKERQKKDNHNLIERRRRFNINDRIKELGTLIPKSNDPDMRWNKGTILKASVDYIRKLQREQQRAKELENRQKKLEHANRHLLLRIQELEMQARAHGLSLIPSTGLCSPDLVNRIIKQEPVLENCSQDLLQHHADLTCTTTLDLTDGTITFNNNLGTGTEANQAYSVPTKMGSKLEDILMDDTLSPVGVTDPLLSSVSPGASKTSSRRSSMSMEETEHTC

[17] = inhibitors of intracellular T. cruzi replication, confirmation, NIH3T3 host cells, beta-gal luminescence (AID 2044); format: functional, cell-based;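 also: intracellular parasites grown in NIH/3T3 mouse fibroblasts as host cells; luminescent beta-galactosidase reporter signal from transgenic T. cruzi replicating inside host cells; inhibitors lower the luminescence signal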
[18] = cells; remark: listed apart in the source
[19] = test system: Vero; assay: cells; format: functional, cell-based; settings: Chlorocebus sabaeus
[20] = HEp-2 cell cytotoxicity, dose response, cytotoxicity control for RSV inhibitor project, HTS (AID 2410); format: functional; settings: human respiratory syncytial virus
[21] = test system: HEK293; assay: cells; format: functional, cell-based; settings: Homo sapiens
[22] = target: Nuclear receptor subfamily 0 group B member 1 (Homo sapiens, UniProt P51843); assay: Luminescence-based cell-based high throughput dose response assay for inhibitors of the orphan nuclear receptor subfamily 0, group B, member 1 (DAX1; NR0B1). [Related pubchem assays (depositor defined):AID504766, AID504790]; format: functional
Sequence of Nuclear receptor subfamily 0 group B member 1 (P51843 whole entry): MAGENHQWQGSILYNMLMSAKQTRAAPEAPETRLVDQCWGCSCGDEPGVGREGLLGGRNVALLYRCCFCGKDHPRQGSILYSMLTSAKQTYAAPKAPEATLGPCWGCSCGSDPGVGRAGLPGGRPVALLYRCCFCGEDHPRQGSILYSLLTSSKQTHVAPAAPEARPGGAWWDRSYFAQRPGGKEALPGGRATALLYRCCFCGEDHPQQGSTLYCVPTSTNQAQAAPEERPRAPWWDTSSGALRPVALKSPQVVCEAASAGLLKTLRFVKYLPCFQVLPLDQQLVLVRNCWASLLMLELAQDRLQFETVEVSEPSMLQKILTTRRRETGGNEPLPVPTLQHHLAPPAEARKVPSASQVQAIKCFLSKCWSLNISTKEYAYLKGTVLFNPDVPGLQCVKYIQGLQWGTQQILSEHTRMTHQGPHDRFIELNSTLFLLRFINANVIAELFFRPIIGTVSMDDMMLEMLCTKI

Sequence of Lysine-specific demethylase 4A (O75164 whole entry): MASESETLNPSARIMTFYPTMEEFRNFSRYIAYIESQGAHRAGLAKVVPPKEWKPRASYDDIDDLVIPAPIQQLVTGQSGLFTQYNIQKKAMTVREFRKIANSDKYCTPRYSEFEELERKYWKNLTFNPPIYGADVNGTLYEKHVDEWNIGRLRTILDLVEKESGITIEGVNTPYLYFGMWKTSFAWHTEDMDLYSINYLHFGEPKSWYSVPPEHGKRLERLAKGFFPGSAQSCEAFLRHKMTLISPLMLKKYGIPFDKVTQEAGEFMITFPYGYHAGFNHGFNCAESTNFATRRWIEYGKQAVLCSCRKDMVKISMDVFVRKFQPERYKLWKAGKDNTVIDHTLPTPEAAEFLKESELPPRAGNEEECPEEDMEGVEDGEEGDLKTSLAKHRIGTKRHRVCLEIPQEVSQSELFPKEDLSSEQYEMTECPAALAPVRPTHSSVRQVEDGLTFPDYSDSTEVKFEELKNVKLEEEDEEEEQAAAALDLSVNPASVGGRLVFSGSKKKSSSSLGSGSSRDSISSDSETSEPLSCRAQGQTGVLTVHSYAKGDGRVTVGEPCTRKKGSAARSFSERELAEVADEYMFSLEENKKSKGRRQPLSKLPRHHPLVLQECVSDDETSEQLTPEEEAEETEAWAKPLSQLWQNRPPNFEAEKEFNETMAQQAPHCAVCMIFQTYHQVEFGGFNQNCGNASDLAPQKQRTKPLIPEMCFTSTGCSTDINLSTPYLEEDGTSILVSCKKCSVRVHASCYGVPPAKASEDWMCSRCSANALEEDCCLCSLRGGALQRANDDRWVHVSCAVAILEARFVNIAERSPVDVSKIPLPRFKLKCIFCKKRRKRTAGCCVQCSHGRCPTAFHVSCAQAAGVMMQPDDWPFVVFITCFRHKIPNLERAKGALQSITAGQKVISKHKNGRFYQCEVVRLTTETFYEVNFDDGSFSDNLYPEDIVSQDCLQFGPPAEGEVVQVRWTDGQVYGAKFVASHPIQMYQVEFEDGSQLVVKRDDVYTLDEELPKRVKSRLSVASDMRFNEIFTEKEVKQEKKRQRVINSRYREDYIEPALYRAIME

Compound: C[C@@H](CN1CCC[C@H]1CN1C(N)=NC[C@@H]1Cc1ccccc1)N1C[C@@H](Cc2ccccc2)N(CCc2ccc(Cl)c(Cl)c2)C1=N
- AC50 [1]: 24.1 µM (active)
- AC50 [2]: 9.21 µM (active)
- AC50 [3]: 15.6 µM (active)
- IC50 [4]: > 20 µM (inactive)

Compound: Cc1cnn(C(S)=NCCc2ccccc2)c1
- AC50 [5]: > 35 µM (active)
- EC50 [6]: 25.4 µM (active)
- AC50 [7]: > 35 µM (active)
- EC50 [8]: > 120 µM (not active)
- EC50 [9]: 27.3 µM (active)

Compound: Cc1ccc(NC(=O)CCC(=O)N/N=C/c2ccc([N+](=O)[O-])o2)cc1C
- EC50 [10]: > 195 µM (not active)
- EC50 [11]: 0.032 µM (active)
- EC50 [12]: > 30 µM (not active)
- EC50 [13]: 0.032 µM (active)
- AC50 [14]: 7.44 µM (active)
- EC50 [15]: 0.016 µM (active)
- AC50 [16]: 6.25 µM (active)
- EC50 [17]: < 0.1 µM (active)

Compound: Cc1cccc(NC(=O)C(C)Sc2nc3ccccc3c(=O)n2CCCN2CCOCC2)c1 (configuration not stated)
- IC50 [18]: 26.8 µM (active)
- IC50 [19]: 23.4 µM (active)
- CC50 [20]: 30.8 µM (active)

Compound: Cc1cc(NC(=O)c2cc3cccc([N+](=O)[O-])c3[nH]2)ccc1F
- IC50 [21]: > 67.5 µM (inactive)
- IC50 [22]: > 67.5 µM (inactive)
